Our source for the inhibition, IC50 and Activity values is ChEMBL document CHEMBL3232869, “Anti-inflammatory components of Euphorbia humifusa Willd” (Bioorg Med Chem Lett, 2014).

Series [1] addresses T1, Bifunctional epoxide hydrolase 2 (Homo sapiens) (UniProt P34913).
T1 sequence (whole entry): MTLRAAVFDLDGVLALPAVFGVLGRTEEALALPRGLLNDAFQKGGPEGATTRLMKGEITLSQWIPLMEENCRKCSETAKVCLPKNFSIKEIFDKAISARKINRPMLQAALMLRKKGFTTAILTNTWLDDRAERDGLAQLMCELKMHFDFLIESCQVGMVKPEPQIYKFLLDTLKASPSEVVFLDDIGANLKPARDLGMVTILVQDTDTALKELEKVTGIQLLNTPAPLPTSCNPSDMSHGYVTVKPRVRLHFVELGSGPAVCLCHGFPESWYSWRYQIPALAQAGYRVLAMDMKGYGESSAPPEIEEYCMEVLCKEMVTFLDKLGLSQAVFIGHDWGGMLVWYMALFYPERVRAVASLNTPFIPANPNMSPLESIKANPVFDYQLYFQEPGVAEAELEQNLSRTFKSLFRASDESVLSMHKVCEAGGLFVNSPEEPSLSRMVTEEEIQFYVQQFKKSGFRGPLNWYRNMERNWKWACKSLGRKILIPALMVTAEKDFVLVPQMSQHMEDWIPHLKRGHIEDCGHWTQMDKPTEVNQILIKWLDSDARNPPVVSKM
Put plainly: Inhibition of sEH (unknown origin) assessed as substrate PHOME hydrolysis at 25 uM after 1 hr by fluorescence method.

Series [2] concerns the target T2, Bifunctional epoxide hydrolase 2 (Homo sapiens, UniProt P34913).
T2 sequence (P34913 whole entry): T1 sequence (whole entry)
In words: Inhibition of sEH (unknown origin) assessed as substrate PHOME hydrolysis after 1 hr by fluorescence method.

Series [3] has as its system RAW264.7. In words: Cytotoxicity against mouse RAW264.7 cells assessed as cell viability at 50 uM after 18 hrs by MTT assay in presence of LPS. To be noted: raw264.7, 18 h. Type of series: cell-based. In general terms: Formazan colour is commonly taken as a measure of viable cells.
The test system of series [4] is RAW264.7. Put plainly: Antiinflammatory activity in mouse RAW264.7 cells assessed as inhibition of LPS-induced nitric oxide production at 10 uM after 18 hrs by griess reaction analysis. Type of series: functional.
The subject of series [5] is RAW264.7. In words: Antiinflammatory activity in mouse RAW264.7 cells assessed as inhibition of LPS-induced nitric oxide production at 0.4 uM after 18 hrs by griess reaction analysis. The series is classed as functional, cell-based. In general terms: Griess reagent forms a coloured azo dye with nitrite.
The subject of series [6] is RAW264.7. Put plainly: Antiinflammatory activity in mouse RAW264.7 cells assessed as inhibition of LPS-induced TNF-alpha secretion at 10 uM after 18 hrs by sandwich ELISA. The series is classed as functional.
In series [7] the test system is RAW264.7. In words: Antiinflammatory activity in mouse RAW264.7 cells assessed as inhibition of LPS-induced TNF-alpha secretion at 0.4 uM after 18 hrs by sandwich ELISA. The series is classed as functional, cell-based. (In general: An ELISA detects its analyte on a solid surface through an enzyme-linked reagent.)
The test system of series [8] is RAW264.7. Put plainly: Antiinflammatory activity in mouse RAW264.7 cells assessed as inhibition of LPS-induced nitric oxide production after 18 hrs by griess reaction analysis. The series is classed as functional, cell-based. Conditions: RAW264.7, 18 h.
Series [9] deals with RAW264.7. In words: Antiinflammatory activity in mouse RAW264.7 cells assessed as inhibition of LPS-induced TNF-alpha secretion after 18 hrs by sandwich ELISA. The series is classed as functional, cell-based. To be noted: RAW264.7, 18 h.

The source made the active and inactive calls. No cut-off for these calls is given here. A value given as a limit tells only on which side of the number the result lay.

The term inhibition denotes the share of the control response that was lost under treatment. A word on the IC50: it is the point on the concentration scale where inhibition reaches its midpoint. Take `COC(=O)[C@H]1CC(=O)c2oc(=O)c3cc(O)c(O)c(O)c3c21`: the inhibition in series [1] was above 40%. The figures for the half-inhibitory concentration (IC50) (in [2]; with RAW264.7 [8]; in the series with RAW264.7 [9]) were above 50 µM, 23.8 µM and 21.2 µM, respectively. In addition, the Activity entry with RAW264.7 [3] was “Non-toxic”. Further, the inhibition entry with RAW264.7 [4] and in the series on RAW264.7 [6] was “Active” each time. The inhibition result in the series on RAW264.7 [5] and in the series with RAW264.7 [7] was “inactive” each time.
Regarding `O=c1c(O[C@@H]2O[C@H](CO)[C@H](O)[C@H](O)[C@H]2O)c(-c2ccc(O)c(O)c2)oc2cc(O)cc(O)c12` [HYPEROSIDE], in series [1], the inhibition is above 40%. Also, the figures for the IC50 (in [2]; with RAW264.7 [8]; with RAW264.7 [9]) were 21.8 µM, 48.8 µM and above 50 µM, respectively. Moreover, in the series on RAW264.7 [3], the Activity result was “Non-toxic”. The inhibition entry in the series on RAW264.7 [4], in the series with RAW264.7 [5] and with RAW264.7 [7] was “inactive” throughout. For the same molecule, the inhibition result with RAW264.7 [6] is “Active”.
As to `O=C1C[C@H](C(=O)O)c2c1oc(=O)c1cc(O)c(O)c(O)c21`, in series [1], the inhibition is above 40%. In addition, the values for the IC50 (in [2]; in the series on RAW264.7 [8]; in the series on RAW264.7 [9]) were 47.4 µM, 41.2 µM and 21.3 µM, respectively. Further, in the series on RAW264.7 [3], the Activity entry was “Non-toxic”. The inhibition entry with RAW264.7 [4], in the series on RAW264.7 [5] and with RAW264.7 [7] was “inactive” in each case. Also, in the series with RAW264.7 [6], the inhibition result is “Active”.
For `O=c1c(O[C@@H]2O[C@H](CO)[C@@H](O)[C@H](O)[C@H]2O)c(-c2ccc(O)c(O)c2)oc2cc(O)cc(O)c12` [ISOQUERCETIN], the inhibition in [1] was above 40%. Besides, the IC50 in series [2] is 28.4 µM; with RAW264.7 [9], above 50 µM. The Activity result with RAW264.7 [3] was “Non-toxic”. Besides, the inhibition result in the series with RAW264.7 [4], in the series with RAW264.7 [5] and with RAW264.7 [7] was “inactive” each time. In addition, in the series with RAW264.7 [6], the inhibition entry is “Active”.
Turning to `O=c1c(O[C@@H]2O[C@H](CO)[C@@H](O)[C@H](O)[C@H]2O)c(-c2cc(O)c(O)c(O)c2)oc2cc(O)cc(O)c12`, the inhibition in series [1] was above 40%. Also, the half-maximal inhibitory concentration (IC50) in series [2] amounted to 17.2 µM; in the series with RAW264.7 [8], 21.2 µM. Further, the Activity entry in the series on RAW264.7 [3] is on record as “Non-toxic”. Besides, the inhibition result in the series with RAW264.7 [4] and in the series with RAW264.7 [6] was “Active” in each case. Moreover, the inhibition entry with RAW264.7 [5] and with RAW264.7 [7] was “inactive” throughout.
Consider `O=c1c(O[C@@H]2O[C@H](CO)[C@@H](O)[C@H](O)[C@H]2O)c(-c2ccc(O)cc2)oc2cc(O)cc(O)c12` [ASTRAGALIN], for which the inhibition in series [1] is above 40%. The half-maximal inhibitory concentration (IC50) in series [2] is above 50 µM; in the series with RAW264.7 [8], 37.1 µM; in the series with RAW264.7 [9], 40.6 µM. In the series on RAW264.7 [3], the Activity result is “Non-toxic”. Also, the inhibition entry in the series with RAW264.7 [4], with RAW264.7 [5] and with RAW264.7 [7] was “inactive” in each case. Also, the inhibition entry with RAW264.7 [6] was “Active”.
Regarding `O=C(OC[C@H]1O[C@@H](OC(=O)c2cc(O)c(O)c(O)c2)[C@H](O)[C@@H](OC(=O)c2cc(O)c(O)c(O)c2)[C@@H]1OC(=O)c1cc(O)c(O)c(O)c1)c1cc(O)c(O)c(O)c1`, the inhibition in series [1] was above 40%. Besides, the IC50 was 36.1 µM in [2], above 50 µM with RAW264.7 [8] and 22.6 µM with RAW264.7 [9]. Further, the Activity result in the series with RAW264.7 [3] is “Non-toxic”. The inhibition entry in the series with RAW264.7 [4], in the series on RAW264.7 [5] and in the series with RAW264.7 [7] was “inactive” each time. For the same molecule, the inhibition entry in the series with RAW264.7 [6] was “Active”.
With `C[C@@H]1O[C@@H](Oc2c(-c3ccc(O)c(O)c3)oc3cc(O)cc(O)c3c2=O)[C@H](OC(=O)c2cc(O)c(O)c(O)c2)[C@H](O)[C@H]1O`, the inhibition in series [1] was above 40%. Further, the IC50 in series [2] stood at 18.6 µM; with RAW264.7 [9] it was 26.1 µM. Further, in the series with RAW264.7 [3], the Activity entry is on record as “Non-toxic”. The inhibition result in the series on RAW264.7 [4], in the series with RAW264.7 [5] and with RAW264.7 [7] was “inactive” each time. Further, in the series on RAW264.7 [6], the inhibition entry was “Active”.
With `O=c1oc2c(O)c(O)cc3c(=O)oc4c(O)c(O)cc1c4c23` [ELLAGIC ACID], the inhibition in series [1] was above 40%. Further, the IC50 in [2] was 20.7 µM; in the series with RAW264.7 [8], 35.7 µM; in the series with RAW264.7 [9], above 50 µM. The Activity result in the series on RAW264.7 [3] is listed as “Non-toxic”. In addition, the inhibition result with RAW264.7 [4], in the series with RAW264.7 [5] and in the series with RAW264.7 [7] was “inactive” in each case. For the same molecule, the inhibition entry in the series on RAW264.7 [6] was “Active”.
Take `C[C@@H]1O[C@@H](OC[C@H]2O[C@@H](Oc3c(-c4ccc(O)c(O)c4)oc4cc(O)cc(O)c4c3=O)[C@H](O)[C@@H](O)[C@@H]2O)[C@H](O)[C@H](O)[C@H]1O` [RUTIN]: in series [1], the inhibition is above 40%. Also, the concentration for half-maximal inhibition (IC50) was found to be 24.3 µM in [2], 27.5 µM with RAW264.7 [8] and 44.5 µM in the series with RAW264.7 [9]. Besides, the Activity result in the series on RAW264.7 [3] was “Non-toxic”. For the same molecule, the inhibition result with RAW264.7 [4] and in the series on RAW264.7 [6] was “Active” in each case. The inhibition entry in the series on RAW264.7 [5] and in the series on RAW264.7 [7] was “inactive” each time.
Take `O=c1c(O)c(-c2ccc(O)c(O)c2)oc2cc(O)cc(O)c12` [QUERCETIN]: the inhibition in [1] was above 40%. Also, the IC50 in series [2] was 33.5 µM; in the series on RAW264.7 [8], above 50 µM. Also, the Activity result with RAW264.7 [3] is “Non-toxic”. Besides, the inhibition entry in the series with RAW264.7 [4], with RAW264.7 [5] and in the series on RAW264.7 [7] was “inactive” each time. Moreover, the inhibition entry in the series with RAW264.7 [6] was “Active”.
